Measurements published in the OligoGym collection.
Oligonucleotides are given in HELM: sugar(base)linkage, 5' to 3'; d 2'-deoxyribose, r ribose, m 2'-O-methylribose, p phosphate. ss, as = sense and antisense strand

These substances were tested against Mmp7 (rat) (assay: reporter assay of Huesken 2005). Conditions: siRNA.
Note: test concentration or dose not given here.

Substance	normalised inhibition (eCFP-eYFP dual reporter)
RNA1{r(A)p.r(G)p.r(U)p.r(C)p.r(U)p.r(U)p.r(A)p.r(C)p.r(A)p.r(A)p.r(A)p.r(G)p.r(G)p.r(A)p.r(C)p.r(G)p.r(A)p.r(C)p.r(A)p.d(T)p.d(T)}|RNA2{r(U)p.r(G)p.r(U)p.r(C)p.r(G)p.r(U)p.r(C)p.r(C)p.r(U)p.r(U)p.r(U)p.r(G)p.r(U)p.r(A)p.r(A)p.r(G)p.r(A)p.r(C)p.r(U)p.d(G)p.d(A)}$$$RNA1{StrandType:ss}|RNA2{StrandType:as}$	98.7%
RNA1{r(A)p.r(G)p.r(U)p.r(G)p.r(C)p.r(A)p.r(G)p.r(U)p.r(G)p.r(G)p.r(A)p.r(C)p.r(A)p.r(A)p.r(A)p.r(C)p.r(U)p.r(G)p.r(A)p.d(T)p.d(T)}|RNA2{r(U)p.r(C)p.r(A)p.r(G)p.r(U)p.r(U)p.r(U)p.r(G)p.r(U)p.r(C)p.r(C)p.r(A)p.r(C)p.r(U)p.r(G)p.r(C)p.r(A)p.r(C)p.r(U)p.d(G)p.d(G)}$$$RNA1{StrandType:ss}|RNA2{StrandType:as}$	110%
RNA1{r(A)p.r(G)p.r(U)p.r(G)p.r(C)p.r(C)p.r(A)p.r(G)p.r(A)p.r(U)p.r(G)p.r(U)p.r(U)p.r(G)p.r(C)p.r(A)p.r(G)p.r(A)p.r(A)p.d(T)p.d(T)}|RNA2{r(U)p.r(U)p.r(C)p.r(U)p.r(G)p.r(C)p.r(A)p.r(A)p.r(C)p.r(A)p.r(U)p.r(C)p.r(U)p.r(G)p.r(G)p.r(C)p.r(A)p.r(C)p.r(U)p.d(C)p.d(C)}$$$RNA1{StrandType:ss}|RNA2{StrandType:as}$	115%
RNA1{r(A)p.r(G)p.r(U)p.r(U)p.r(C)p.r(U)p.r(G)p.r(U)p.r(G)p.r(A)p.r(U)p.r(G)p.r(U)p.r(A)p.r(C)p.r(C)p.r(C)p.r(U)p.r(A)p.d(T)p.d(T)}|RNA2{r(U)p.r(A)p.r(G)p.r(G)p.r(G)p.r(U)p.r(A)p.r(C)p.r(A)p.r(U)p.r(C)p.r(A)p.r(C)p.r(A)p.r(G)p.r(A)p.r(A)p.r(C)p.r(U)p.d(G)p.d(G)}$$$RNA1{StrandType:ss}|RNA2{StrandType:as}$	116%
RNA1{r(A)p.r(G)p.r(U)p.r(U)p.r(C)p.r(U)p.r(U)p.r(C)p.r(G)p.r(G)p.r(U)p.r(U)p.r(U)p.r(G)p.r(C)p.r(C)p.r(G)p.r(G)p.r(A)p.d(T)p.d(T)}|RNA2{r(U)p.r(C)p.r(C)p.r(G)p.r(G)p.r(C)p.r(A)p.r(A)p.r(A)p.r(C)p.r(C)p.r(G)p.r(A)p.r(A)p.r(G)p.r(A)p.r(A)p.r(C)p.r(U)p.d(T)p.d(C)}$$$RNA1{StrandType:ss}|RNA2{StrandType:as}$	53.8%
RNA1{r(A)p.r(U)p.r(C)p.r(U)p.r(U)p.r(A)p.r(G)p.r(G)p.r(A)p.r(A)p.r(A)p.r(U)p.r(U)p.r(U)p.r(U)p.r(A)p.r(C)p.r(C)p.r(U)p.d(T)p.d(T)}|RNA2{r(A)p.r(G)p.r(G)p.r(U)p.r(A)p.r(A)p.r(A)p.r(A)p.r(U)p.r(U)p.r(U)p.r(C)p.r(C)p.r(U)p.r(A)p.r(A)p.r(G)p.r(A)p.r(U)p.d(A)p.d(A)}$$$RNA1{StrandType:ss}|RNA2{StrandType:as}$	79.6%
RNA1{r(A)p.r(U)p.r(G)p.r(A)p.r(G)p.r(U)p.r(A)p.r(C)p.r(U)p.r(G)p.r(G)p.r(A)p.r(C)p.r(G)p.r(G)p.r(A)p.r(U)p.r(G)p.r(G)p.d(T)p.d(T)}|RNA2{r(C)p.r(C)p.r(A)p.r(U)p.r(C)p.r(C)p.r(G)p.r(U)p.r(C)p.r(C)p.r(A)p.r(G)p.r(U)p.r(A)p.r(C)p.r(U)p.r(C)p.r(A)p.r(U)p.d(C)p.d(C)}$$$RNA1{StrandType:ss}|RNA2{StrandType:as}$	41.9%
RNA1{r(A)p.r(U)p.r(G)p.r(G)p.r(U)p.r(G)p.r(A)p.r(G)p.r(G)p.r(A)p.r(C)p.r(U)p.r(C)p.r(A)p.r(G)p.r(G)p.r(C)p.r(G)p.r(U)p.d(T)p.d(T)}|RNA2{r(A)p.r(C)p.r(G)p.r(C)p.r(C)p.r(U)p.r(G)p.r(A)p.r(G)p.r(U)p.r(C)p.r(C)p.r(U)p.r(C)p.r(A)p.r(C)p.r(C)p.r(A)p.r(U)p.d(C)p.d(C)}$$$RNA1{StrandType:ss}|RNA2{StrandType:as}$	65.7%
RNA1{r(A)p.r(U)p.r(G)p.r(U)p.r(U)p.r(G)p.r(C)p.r(A)p.r(G)p.r(A)p.r(A)p.r(U)p.r(U)p.r(C)p.r(U)p.r(C)p.r(A)p.r(C)p.r(U)p.d(T)p.d(T)}|RNA2{r(A)p.r(G)p.r(U)p.r(G)p.r(A)p.r(G)p.r(A)p.r(A)p.r(U)p.r(U)p.r(C)p.r(U)p.r(G)p.r(C)p.r(A)p.r(A)p.r(C)p.r(A)p.r(U)p.d(C)p.d(T)}$$$RNA1{StrandType:ss}|RNA2{StrandType:as}$	80.2%
RNA1{r(A)p.r(U)p.r(U)p.r(U)p.r(G)p.r(A)p.r(U)p.r(G)p.r(G)p.r(G)p.r(C)p.r(C)p.r(A)p.r(G)p.r(G)p.r(A)p.r(A)p.r(A)p.r(C)p.d(T)p.d(T)}|RNA2{r(G)p.r(U)p.r(U)p.r(U)p.r(C)p.r(C)p.r(U)p.r(G)p.r(G)p.r(C)p.r(C)p.r(C)p.r(A)p.r(U)p.r(C)p.r(A)p.r(A)p.r(A)p.r(U)p.d(G)p.d(G)}$$$RNA1{StrandType:ss}|RNA2{StrandType:as}$	10.5%
RNA1{r(C)p.r(A)p.r(A)p.r(A)p.r(C)p.r(A)p.r(G)p.r(U)p.r(C)p.r(C)p.r(U)p.r(A)p.r(A)p.r(G)p.r(U)p.r(G)p.r(G)p.r(C)p.r(A)p.d(T)p.d(T)}|RNA2{r(U)p.r(G)p.r(C)p.r(C)p.r(A)p.r(C)p.r(U)p.r(U)p.r(A)p.r(G)p.r(G)p.r(A)p.r(C)p.r(U)p.r(G)p.r(U)p.r(U)p.r(U)p.r(G)p.d(G)p.d(C)}$$$RNA1{StrandType:ss}|RNA2{StrandType:as}$	81.2%
RNA1{r(C)p.r(A)p.r(A)p.r(A)p.r(G)p.r(A)p.r(A)p.r(G)p.r(G)p.r(C)p.r(C)p.r(A)p.r(C)p.r(C)p.r(A)p.r(G)p.r(U)p.r(G)p.r(C)p.d(T)p.d(T)}|RNA2{r(G)p.r(C)p.r(A)p.r(C)p.r(U)p.r(G)p.r(G)p.r(U)p.r(G)p.r(G)p.r(C)p.r(C)p.r(U)p.r(U)p.r(C)p.r(U)p.r(U)p.r(U)p.r(G)p.d(T)p.d(T)}$$$RNA1{StrandType:ss}|RNA2{StrandType:as}$	38.2%
RNA1{r(C)p.r(A)p.r(C)p.r(U)p.r(C)p.r(U)p.r(A)p.r(G)p.r(G)p.r(C)p.r(C)p.r(A)p.r(U)p.r(G)p.r(C)p.r(C)p.r(U)p.r(U)p.r(U)p.d(T)p.d(T)}|RNA2{r(A)p.r(A)p.r(A)p.r(G)p.r(G)p.r(C)p.r(A)p.r(U)p.r(G)p.r(G)p.r(C)p.r(C)p.r(U)p.r(A)p.r(G)p.r(A)p.r(G)p.r(U)p.r(G)p.d(T)p.d(T)}$$$RNA1{StrandType:ss}|RNA2{StrandType:as}$	101%
RNA1{r(C)p.r(A)p.r(G)p.r(A)p.r(C)p.r(A)p.r(U)p.r(C)p.r(A)p.r(U)p.r(A)p.r(A)p.r(U)p.r(U)p.r(G)p.r(G)p.r(C)p.r(U)p.r(U)p.d(T)p.d(T)}|RNA2{r(A)p.r(A)p.r(G)p.r(C)p.r(C)p.r(A)p.r(A)p.r(U)p.r(U)p.r(A)p.r(U)p.r(G)p.r(A)p.r(U)p.r(G)p.r(U)p.r(C)p.r(U)p.r(G)p.d(C)p.d(A)}$$$RNA1{StrandType:ss}|RNA2{StrandType:as}$	103%
